From patent US20040235019A1, “Diagnostics and therapeutics for the gene expression signature of PPAR-gamma receptor ligand” (Agouron Pharmaceuticals, Inc., priority 2003, published 2004)

Legend:
3T3-L1 cells = test: Gene profile of 3T3-L1 cells treated with Rosiglitazone after PPARγ1 antisense knockdown; type: cell-based, murine; conditions: antisense 72 hours
Protocol: 3T3-L1 cells were treated for 72 hours with an antisense construct whose nucleic acid sequence was complementary to PPARγ1 and treated with Rosiglitazone. As a separate control, 3T3-L1 were cells treated with the antisense construct, but without Rosiglitazone. Gene expression levels were determined using Affymetix microarray analysis. Following the incubation, RNA was extracted from the cells using Trizol (Invitrogen) followed by cleanup using an RNeasy kit (Qiagen) including DNase I treatment. Probes from each of these cell populations were prepared by reverse transcription-polymerase chain reaction (RT-PCR) and subsequently biotin labeled by in vitro transcription using the BioArray High Yield RNA Transcript Labeling Kit (Enzo). The probes were then hybridized to U74Aver2 Affymetrix gene chips. The hybridization was conducted as follows The hybridization was for 16 hours at 45° C. and 60 RPM in a rotisserie box.

[1] = patients; personal communication (Heidi Camp, Pfizer Inc); cited from earlier work

Structure (SMILES) | genes of Tables I and II also up- or down-regulated by Rosiglitazone in cells treated with PPARγ1 antisense nucleic acid (3T3-L1 cells) [%] | incidence of edema clinically [1]
CN(CCOc1ccc(CC2SC(=O)NC2=O)cc1)c1ccccn1 (centres unmarked) [Rosiglitazone] | 91 | –
Cc1oc(-c2ccccc2)nc1CCOc1ccc(C[C@H](Nc2ccccc2C(=O)c2ccccc2)C(=O)O)cc1 [Farglitazar] | – | most frequent incidence of edema clinically
